Entries after “also recorded” stand apart in the source; their conditions may differ.
Key:
EC tube networks [1] = experiment: 3D collagen EC tube regression assay; type: cell-based, human; settings: for EC tube regression (pro-regressive activity): factor added to established 48 hr EC tube networks, 24 hr
Method: (A) EC cultures with tube networks were established for 48 hr followed by the addition of indicated cytokines or thrombin (Thr) for 24 hr. IL-1β and IL-la were added at 1 ng/ml, TNFα at 3.16 ng/ml and thrombin at 1 μg/ml. Bars equal 100 or 200 μm. (B,C,D) EC tube networks were treated with the indicated cytokines and varying concentrations in dose-response analyses and in the presence or absence of thrombin added at 1 μg/ml. After 24 hr, cultures were fixed, stained and quantitated for EC lumen area per field. These curves are from a representative experiment using triplicate wells for each condition. The values (±SD) are derived from analyzed fields (n=15) where total lumen and tube area was measured. Asterisks indicate significance at p<0.05 compared to control and squares indicate significance at p<0.05 compared to the cytokine treatments alone.
ECs (passages 3-6) and pericytes (passages 3-12) were cultured as previously described^49,50. THP-1 cells were cultured in RPMI-1640-20% FCS. THP-1-T macrophages were differentiated for 72 hr. with 50 ng/ml of phorbol ester in RPMI-20% FCS, and then treated for 48 hr. in RPMI-2% FCS prior to adding TLR ligands. THP-1-VT macrophages were induced to differentiate for 72 hr. with 10^-7 M vitamin D3 (Calcitriol) in RPMI-20% FCS, followed by 48 hr. with phorbol ester in RPMI-2% FCS prior to adding TLR ligands.
(§1) ECs or ECs with pericytes were suspended in 3D collagen matrices and incubated at 37° C. in serum-free defined media as described^9,50,51. Recombinant factors or THP-1 conditioned media were added at the indicated doses to existing 48 or 72 hr. cultures with EC only or EC-pericyte tube networks, respectively. After 24 or 48 hr. for EC only or EC-pericyte tubes, respectively, cultures were fixed in 3% glutaraldehyde or 3% paraformaldehyde. EC tube areas were traced and quantitated as described. In some cases, neutralizing antibodies were added (10 μg/ml). For signaling experiments, lysates were prepared from control vs. regressing 3D cultures at different time points.

THP-1 macrophages = experiment: TLR ligand activation of cells; conditioned medium tested on EC tube networks; type: cell-based, human
Method: (§2) (A,B) The TLR ligand Pam3CSK4 was added at 100 ng/ml to THP-1 macrophages that were differentiated in two separate ways (THP-1-VT vs. THP-1-T) or to ECs, fibroblasts (Fib), or pericytes (Peri). Conditioned medium was collected after 4 hr and was added at a 1:5 dilution to established EC tube networks vs. control Pam3CSK4 or control RPMI1640 media. Two independent conditioned media batches were obtained for both the THP-1-VT (i.e. VT1, VT2) and THP-1-T (i.e. T1, T2) macrophage cells. IL-la and IL-1β were added separately at 1 ng/ml. After 24 hr, cultures were fixed, stained, photographed (A) and quantitated for EC tube area (B). Bar equals 200 μm. […] The values (±SD) were obtained from analyzed fields (n=15) where total lumen and tube area was measured. Asterisks indicate significance at p<0.05 compared to control. (C) LPS was added at the indicated concentrations (ng/ml) in the presence or absence of recombinant LPS binding protein (LBP) at 1 μg/ml to EC tube networks. EC lumen areas were measured after 24 hr following these additions. (D) THP-T macrophages were treated with control or 100 ng/ml of Pam3CSK4 (Pam) or LPS. After 4 hr, total RNA was obtained, and RT-PCR analysis was performed evaluating the mRNA expression of indicated genes. […] From the real-time videos, EC lumen areas were measured over time (n=6). […]

THP-T macrophages = experiment: RT-PCR of cytokine mRNA in TLR ligand-treated macrophages; type: cell-based, human; settings: 100 ng/ml, 4 hr
Method: as §2

EC sprouts and tubes = experiment: angiogenic sprouting assay (ECs invading from monolayer surface); type: cell-based, human; settings: angiogenic sprouting system
Method: (A) ECs were seeded onto a monolayer surface and then allowed to invade into the gels to form tubes over a 48 hr period. At this time, cultures were then treated with IL-1β or TNFα and in the absence or presence of FIST. Cultures were fixed after 24 hr, stained and photographed to visualize the monolayer surface and the underlying sprouts and tubes. (B) Cultures were established just like in A and then the Pak2 inhibitor, Frax486 (2.5 μM) or the microtubule depolymerizing agent, vinblastine (100 nM), were added to media in the presence or absence of FIST. Cultures were fixed after 24 hr, stained and photographed. Bar equals 200 μm.
Studies to define the factors and signals that promote endothelial cell (EC) lumen and tube formation, EC sprouting and EC-pericyte tube co-assembly have been performed under serum-free defined conditions so that the functional role of individual molecules that regulate these processes can be assessed. Disclosed herein, the factors that control capillary regression are defined. Capillary regression is a process that has been largely neglected despite the likelihood that it may present a fundamental pathogenic feature of major human diseases where capillary disassembly and regression are known to occur (i.e. hypertension, diabetes, ischemic disease in many tissues, neurodegenerative diseases, and malignant cancer). […] EC tube networks were allowed to form for 48 hr. (vasculogenesis type of assay) and then added these agents in dose-response experiments, showing that they potently induce EC tube regression (at low ng levels) (FIG. 1). Real-time movies were performed to visualize these pro-regressive activities. This experimental approach has utilized assays that mimic vasculogenesis or angiogenic sprouting and these factors induce regression equally well in both assay systems. […] These studies have been performed primarily in 3D collagen matrices, but the same result is also observed in 3D fibrin matrices.

[2] = system: EC-pericyte tube networks; experiment: EC-pericyte co-culture regression assay; type: cell-based, human; settings: added to 72 hr co-cultures
Method: (A) EC-pericyte (GFP-labeled) co-cultures were established and allowed to form for 72 hr and at this time, the combination of IL-1β (10 ng/ml), TNFα (10 ng/ml) and thrombin (11 μg/ml) were added in combination compared to control and real-time movies were performed. Light and fluorescent image overlays over time are shown in representative fields. Arrowheads indicate clusters of pericytes that accumulate together during regression responses in response to these three factors in combination. After 48 hr, fixed cultures were stained for CD31 to detect ECs and fluorescence image overlays were performed. (B) The same set up was established as in A, except that each individual factor and combination of factors were added. After 48 hr, the cultures were fixed and stained for CD31. Confocal images were obtained, and fluorescence overlay images are shown.
(A) EC-pericyte co-cultures were established for 72 hr, and then were left untreated or with IL-1β (10 ng/ml), TNFα (10 ng/ml), and thrombin (11 μg/ml) in combination. After 48 hr, cultures were fixed and stained with CD31, confocal microscopy and 3D reconstruction of the images allowed for an upright and side view. (B) EC-pericyte tube networks were treated with the indicated single and combined factors and after fixation, EC tube area was quantitated. […] The values (±SD) were obtained from analyzed fields (n=15) where total lumen and tube area was measured. Asterisks indicate increased significance at p<0.05 compared to control, the squares indicate decreased significance at p<0.05 relative to the single factor conditions and the triangle indicates significance at p<0.05 relative to the double factor conditions. (C) EC-pericyte tube networks were treated with indicated combinations of factors. After 48 hr, total GFP fluorescence per well was quantitated as a measure of pericyte number since they are GFP-labeled. […] Asterisks indicate significance at p<0.05 compared to control.
as §1

EC tube networks [3] = experiment: Western blots of lysates from regressing 3D EC cultures (regression signaling signature); type: cell-based, human; settings: 24-hr. time course, compared to control EC tubes
Method: (A,B) ECs tube networks were treated with the indicated factors vs. control and at different time points, lysates were prepared from the 3D cultures. Western blots were performed using the different indicated antibodies. (C) Schematic illustrating findings that define a capillary regression signaling signature.
THP-T macrophages were treated with Pam3CSK4 (Pam) or LPS and conditioned medium was added at a 1:20 or 1:50 dilution, respectively, to EC tube networks. Control and IL10-treated cultures were compared with the conditioned medium treatments within the same experiment. At the indicated time points, lysates were obtained, and Western blots were performed with the indicated antibodies.
as §1

[4] = system: Lymphatic EC tube networks; experiment: lymphatic EC tube network regression; type: cell-based; settings: cytokines 10 ng/ml, thrombin 1 μg/ml, 24 hr
Method: Lymphatic EC tube networks were established for 48 hr and at that time, the indicated pro-inflammatory mediators were added. IL-10 and TNFα were added at 10 ng/ml, while thrombin was added at 1 μg/ml. (A) After 24 hr, cultures were fixed, stained with toluidine blue and photographed. (B) The cultures in (A) were quantitated for EC tube area. Asterisks indicate significance at p<0.01 compared to control.

hyaloid vessels = experiment: hyaloid vascular regression in mice; type: in vivo; settings: intravitreal injection, vessel number quantitated at P8
Method: (A) Intravitreal injection of blocking antibodies directed to both IL-10 and TNFα vs control IgG was performed at postnatal day (P) 6, and hyaloid vessel number was quantitated at P8. (B) Intravitreal injection of IL-10 was performed at P5 vs vehicle control, and hyaloid vessel number was quantitated at P8. (C and D) Hyaloid vessels at P2 and P8 were immunostained for phospho-MLC2 (p-MLC; red) and CD31-positive endothelial cells (ECs; green), and double-positive cells were imaged and quantitated over time. Scale bar=100 μm. E and F, Analysis of ICAM-1 expression at the mRNA (E) and protein level (F) during different stages of hyaloid vessel regression. CD indicates cluster of differentiation; DAPI, 4′6-diamidino-2-phenylindole; ICAM, intercellular adhesion molecule; and MLC, myosin light chain.
In some embodiments, physiologic capillary regression can be modeled in a mouse by examining the postnatal regression of the eye hyaloid vasculature. In some embodiments, this vascular regressive response can depend on the presence of adjacent macrophages which decorate this developmental vascular bed. […] In some embodiments, EC capillary regression during hyaloid regression can include increased expression of ICAM-1 (at the mRNA and protein level) and increased presence of phospho-MLC2 in regressing hyaloid ECs.

Pam3CSK4 was tested, and the “EC tube regression (pro-regressive activity)” value (EC tube networks [1]) was “Neither Pam3CSK4 or LPS by themselves (with and without the presence of LPS-binding protein, LBP) had any ability to directly cause EC tube regression”, the “induction of pro-regressive activities in conditioned media of other cell types” value (THP-1 macrophages; ECs, pericytes and fibroblasts) was “failed to induce pro-regressive activities in their conditioned media” and the “induction of pro-regressive activities in macrophage conditioned medium” value (THP-1 macrophages; TLR ligand 100 ng/ml added to macrophages, medium collected after 4 hr) was “highly potent pro-regressive activities in the macrophage conditioned medium”. For the same molecule, the “mRNA expression of inflammatory cytokines” value (THP-T macrophages) was “marked upregulation of TNFα, IL-1β, IL-la, IL-6 and IL-10 (i.e. an anti-inflammatory cytokine) as well as tissue factor (i.e. F3)”.

TNFα was tested, and the “EC tube regression in screen of growth factors and cytokines” value (EC tube networks [1]; 40 and 10 ng/ml, 48 hr EC tube networks) was “more potent pro-regressive factors than the other factors described herein”, the “EC tube regression (pro-regressive activity)” value (EC tube networks [1]) was “directly cause capillary tube collapse and regression” and the “degeneration of sprouts and EC monolayer” value (EC sprouts and tubes) was “induce degeneration of the invading sprouts, but also the EC monolayer surface where the sprouts originated”. The “EC tube regression in EC-pericyte co-cultures” value [2] was “marked tube regression in response to each factor individually and, also in combination”, the pericyte numbers [2] was “an increase in pericyte numbers” and the “ICAM-1 and VCAM-1 levels” value (EC tube networks [3]) was “Strong upregulation of ICAM-1 and VCAM-1”. For the same molecule, the “phospho-Pak2, phospho-cofilin, acetylated tubulin, procaspase3 levels” value (EC tube networks [3]) was “decreased levels of phospho-Pak2, phospho-cofilin, acetylated tubulin and procaspase3”, the “phospho-p38, phospho-JNK, phospho-MLC2 levels” value (EC tube networks [3]) was “increased levels of phospho-p38, phospho-JNK, and phospho-MLC2” and the “lymphatic tube network regression” value [4] was “regress”.

For thrombin, the “EC tube regression (pro-regressive activity)” value (EC tube networks [1]) was “directly cause capillary tube collapse and regression; also recorded: less effective”, the “EC tube regression in EC-pericyte co-cultures” value [2] was “marked tube regression in response to each factor individually and, also in combination” and the pericyte numbers [2] was “an increase in pericyte numbers”. The “lymphatic tube network regression” value [4] was “regress”.

B1: IL-10: anti-inflammatory cytokine (protein, UniProt P22301 19-178, looked up)
Interleukin-10: SPGQGTQSENSCTHFPGNLPNMLRDLRDAFSRVKTFFQMKDQLDNLLLKESLLEDFKGYLGCQALSEMIQFYLEEVMPQAENQDPDIKAHVNSLGENLKTLRLRLRRCHRFLPCENKSKAVEQVKNAFNKLQEKGIYKAMSEFDIFINYIEAYMTMKIRN
In the case of B1, the hyaloid vessel regression (hyaloid vessels) is reported as “inhibited hyaloid regression”.

— patent publication US20240122934A1, “COMPOSITIONS AND METHODS OF TREATMENT FOR INHIBITING CAPILLARY TUBE REGRESSION” (University of South Florida, priority 2019, published 2024)
